Test results: patent US12377112B2, “Methods of treating neurocognitive disorders, chronic pain and reducing inflammation” (priority 2019, dated 2025)

What was measured:
[1] = tested on: children aged 7 to 14 years old with ADHD; settings: 6-week trial, children aged 7 to 14 years with ADHD; cited from earlier work
male CD1 mice = experiment: Pentylenetetrazol (PTZ) infusion seizure threshold; assay type: in vivo, mouse; settings: 10 mg/kg
From the text: Administration of chemical convulsant agents such as Pentylenetetrazol (PTZ) are used to mimic behavioral aspects of human epilepsy. PTZ causes myoclonic jerking movements, clonic convulsions or forelimb/hindlimb tonic extension in rodents. The PTZ model is primarily used to evaluate anti-convulsant properties of antiepileptic drugs (AED's) by identifying compounds which raise seizure threshold but can also be used to identify pro-convulsant agents that lower seizure threshold. PTZ is a well-established model for acute and repetitive seizures, and is accepted for use for screening AED action. PTZ induces myoclonic and generalized tonic-clonic seizures.
Male CD1 mice (age 6-8 weeks, weight 30.0-42.9 g, source: Charles River UK) were used in this study. […] During this time-infusion, mice were individually assessed for the onset of myoclonic, forelimb tonus and hindlimb tonus seizures. The latencies (in seconds) from start of infusion to the appearance of first myoclonus, forelimb tonic and hind limb tonic extension were recorded. […] For animals reaching this cut off, the dose of PTZ in mg/kg infused over the 120 s was calculated as the threshold dose. […]
Data was analysed using one way ANOVA in which the dose of PTZ required to induce seizure was compared between each treatment groups and vehicle. […]

patients = settings: human, in vivo; cited from earlier work

Q: With `NC(=O)C[S+]([O-])C(c1ccccc1)c1ccccc1` (stereo not drawn) [modafinil] as the molecule, how does the “Response rate compared to placebo” value [1] read?
A: 78%

Q: For `CN1C(=O)CN=C(c2ccccc2)c2cc(Cl)ccc21` [Diazepam, diazepam], which “Dose of PTZ required to induce myoclonic, forelimb and hindlimb tonic seizures” value (male CD1 mice) is on record?
A: significantly increased

Q: With `CNCC[C@@H](Oc1ccccc1C)c1ccccc1` [Atomoxetine, atomoxetine] as the molecule, how does the “Decreased appetite, % of patients” value (patients) read?
A: 15-20%
